Read-outs that look alike come from different tables or passages of the source.
What was measured:
PC12 cells [1] = assay type: cell-based, rat
caspase-3 = test: Caspase-3 activating action of β-amyloid and its suppression (Ac-DEVD-AMC substrate); assay type: cell-based, rat; settings: FIG. 7
Description: PC12 cells that had been cultured almost similarly to Example 4 were cultured in a 24-well plate (2×10^5 cells/well). 10^−5 M β-amyloid was added to the plate. At this time, cAMP derivative (10^−4 M) and neuropeptide PACAP (10^−9 M) were added respectively, and then the action of activating caspase-3, an apoptosis-related enzyme, was examined. The caspase-3 activating action was examined using Ac-DEVD-AMC, a caspase-3 specific substrate. […] Further, by the addition of neuropeptide PACAP, an incomplete, approximately 50% suppressive effect was shown. […] Taking into consideration that this suppressive action is not complete, other action mechanisms may also be involved.

PC12 cells [2] = test: Neuroprotective action against β-amyloid, viable cell count / survival rate by WST-8 method; assay type: cell-based, rat; parameters: key to Neuroprotective action: +, P < 0.05 when compared with the no neuropeptide-added group; settings: for relationship between concentration and neuroprotective action against β-amyloid: neuropeptides at various concentrations
Description: An experiment was performed similarly to Example 5, and then the neuroprotective action against cell death by β-amyloid of the following PACAP-related neuropeptides (peptides 1, 2, 4, 5, 7, 8, 15, 16, 17, 19, 21, 26, 27, 28, 29, 30, 31, 32, 33, 34, 35, 36, 37, 38 and 39) and VIP-related neuropeptides (peptides 3, 9, 10, 11, 12, 13, 14, 18, 20, 22, 23, 24 and 25) was confirmed. Specifically, amyloid (50 μM) and each of the various PACAP-related neuropeptides and VIP-related neuropeptides were added to the cultured PC12 cells. The number of […] calculated by the WST-8 method, so that comparison and examination was performed for the neuroprotective action of these various peptides against amyloid. If the neuropeptides had neuroprotective action, a clear difference in viable cell count can be observed between cases in which neuropeptides were added and cases in which neuropeptides were not added. In PC12 cells added with each of the various neuropeptides, a case wherein a higher cell survival rate (P<0.05) was observed compared with groups in which neuropeptides had not been added, was determined as having neuroprotective action. The results are shown in Table 1 and Table 2. β-amyloid was added to PC12 cells that had been cultured similarly to Example 5. At this time, neuropeptides PACAP27, VIP and humanin, and a cell-permeable cAMP derivative were allowed to respectively co-exist, so that the effect of these neuropeptides against cell death by β-amyloid was confirmed. Cell death was examined by evaluating cell count using the WST-8 method, and then by calculating cell survival rate. […] In the presence of β-amyloid, approximately 70% of the cells died. […] The neuroprotective action of humanin, a recently found human-derived neuroprotective substance (Proc Natl Acad Sci USA (2001) 98 (11) 6336-6341), was also examined. […] At this time, neuropeptides at various concentrations were allowed to co-exist, so that the relationship between the neuroprotective action and the concentration was investigated. Cells were calculated by the WST-8 method, and then the extent to which cell death by β-amyloid could be attenuated was expressed numerically.

PC12 cells [3] = test system: PC12 cells
PC12 cells [4] = test: Cell death by β-amyloid monitored by lactate dehydrogenase release; assay type: cell-based, rat; settings: 48 hours, FIG. 3

With “Pituitary Adenylate Cyclase Activating Polypeptide [PACAP]” the “degree of neuroprotective action against abnormal prion (106-126)” value (PC12 cells [1]; 50 μM abnormal prion (106-126), neuropeptides at various concentrations, FIG. 2) was “even at an extremely low concentrations, PACAP showed a certain degree of neuroprotective action”, the “suppressive effect on caspase-3 activation by β-amyloid” value (caspase-3; 10^−5 M β-amyloid, PACAP 10^−9 M) was “approximately 50%” and the “neuroprotective action relative to that of VIP” value (PC12 cells [2]; β-amyloid, FIG. 6) was “at least 1×10^4 fold”. The “relationship between concentration and neuroprotective action against β-amyloid” value (PC12 cells [2]; β-amyloid, FIG. 6) was “showed neuroprotective action even at an extremely low concentration” and the “concentration at which the neuroprotective effect was strongest” value (PC12 cells [2]; β-amyloid, various concentrations, FIG. 6) was 10^−9 to 10^−13 M.

With Prion (106-126) the “cell death (lactate dehydrogenase released to the medium)” value (PC12 cells [3]) was “cell death occurs depending on the concentration”.

With “VIP (HSDAVFTDNYTRLRKQMAVKKYLNSILN) [Peptide 3]” the “degree of neuroprotective action against abnormal prion (106-126)” value (PC12 cells [1]) was “showed neuroprotective action at concentrations higher than that of PACAP”, the Neuroprotective action (PC12 cells [2]; VIP-related neuropeptide 10^−7 M, amyloid (50 μM), cell survival rate vs no peptide) was “+” and the “neuroprotective action against cell death by β-amyloid (cell survival rate)” value (PC12 cells [2]; co-existing with β-amyloid, PACAP27 10^−9 M, FIG. 5) was “showed neuroprotective action against β-amyloid although the effect was weaker than that of PACAP27”. For the same substance, the “relationship between concentration and neuroprotective action against β-amyloid” value (PC12 cells [2]; β-amyloid, FIG. 6) was “showed strong neuroprotective action at relatively high concentrations”.

In the case of β-amyloid 1-42, the “activity of caspase-3” value (caspase-3; addition of 10^−5 M β-amyloid) is reported as “improved”, the “cell death by β-amyloid vs control group” value (PC12 cells [4]; 0.2 μM insulin-containing serum-free DMEM) is reported as “significant cell death” and the “cell death by β-amyloid vs control group” value (PC12 cells [4]; 0.25% horse serum and 0.25% newborn calf serum-containing DMEM) is reported as “significant cell death”. For the same substance, the “cell death by β-amyloid vs control group” value (PC12 cells [4]; 5% horse serum and 5% newborn calf serum-containing DMEM) was “no cell death” and the “cells died in the presence of β-amyloid” value (PC12 cells [2]; β-amyloid alone, WST-8, FIG. 5) was “approximately 70%”.

Source: patent US20040132648A1, “Remedies and/or preventives for conformational diseases” (priority 2001, published 2004)
